Key:
Experiment in all cases: cells
[1] = tested on: ABC-1; format: functional, cell-based, Homo sapiens; details: Homo sapiens, ABC-1;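 also: growth inhibition of human ABC-1 cells, read out by a cell viability assay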
Description: SANGER: Inhibition of human ABC-1 cell growth in a cell viability assay.

[2] = tested on: HD-MY-Z; format: functional, cell-based, Homo sapiens; details: Homo sapiens, HD-MY-Z;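 also: growth inhibition of HD-MY-Z cells, read out with a cell viability assay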
Description: SANGER: Inhibition of human HD-MY-Z cell growth in a cell viability assay.

[3] = tested on: LS-1034; format: functional, cell-based, Homo sapiens; details: Homo sapiens, LS-1034
Description: SANGER: Inhibition of human LS-1034 cell growth in a cell viability assay.

[4] = tested on: TE-5; format: functional, cell-based, Homo sapiens; details: Homo sapiens, TE-5;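 also: inhibition of cell growth, read out by a cell viability assay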
Description: SANGER: Inhibition of human TE-5 cell growth in a cell viability assay.

[5] = tested on: Becker; format: functional, cell-based, Homo sapiens; details: Homo sapiens, Becker;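 also: growth inhibition of Becker cells, read out with a cell viability assay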
Description: SANGER: Inhibition of human Becker cell growth in a cell viability assay.

[6] = tested on: K5; format: functional, cell-based, Homo sapiens; details: Homo sapiens, K5
Description: SANGER: Inhibition of human K5 cell growth in a cell viability assay.

[7] = tested on: MDA-MB-175-VII; format: functional, cell-based, Homo sapiens; details: Homo sapiens, MDA-MB-175-VII
[8] = tested on: IA-LM; format: functional, cell-based, Homo sapiens; details: Homo sapiens, IA-LM;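 also: cell viability assay measuring growth inhibition of human IA-LM cells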
Description: SANGER: Inhibition of human IA-LM cell growth in a cell viability assay.

[9] = tested on: COLO-684; format: functional, cell-based; details: Homo sapiens
Description: SANGER: Inhibition of human COLO-684 cell growth in a cell viability assay.

[10] = tested on: SF-126; format: functional, cell-based, Homo sapiens; details: Homo sapiens, SF-126;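 also: growth inhibition of human SF126 cells, read out with a cell viability assay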
Description: SANGER: Inhibition of human SF126 cell growth in a cell viability assay.

[11] = tested on: GAMG; format: functional, cell-based, Homo sapiens; details: Homo sapiens, GAMG;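 also: cell growth inhibition measured by a viability assay in the GAMG human cell line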
Description: SANGER: Inhibition of human GAMG cell growth in a cell viability assay.

[12] = tested on: MOLT-16; format: functional, cell-based; details: Homo sapiens;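 also: growth inhibition of human MOLT-16 cells, read out with a cell viability assay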
Description: SANGER: Inhibition of human MOLT-16 cell growth in a cell viability assay.

[13] = tested on: RVH-421; format: functional, cell-based, Homo sapiens; details: Homo sapiens, RVH-421
Description: SANGER: Inhibition of human RVH-421 cell growth in a cell viability assay.

[14] = tested on: HSC-2; format: functional, cell-based, Homo sapiens; details: Homo sapiens, HSC-2;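 also: growth inhibition of human HSC-2 cells, read out by a cell viability assay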
Description: SANGER: Inhibition of human HSC-2 cell growth in a cell viability assay.

[15] = tested on: PA-1; format: functional, cell-based, Homo sapiens; details: Homo sapiens, PA-1;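 also: IC50 for suppression of PA-1 cell proliferation, determined with a cell viability read-out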
Description: SANGER: Inhibition of human PA-1 cell growth in a cell viability assay.

[16] = tested on: UO-31; format: functional, cell-based; details: Homo sapiens;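 also: cell viability assay measuring inhibition of cell growth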
Description: SANGER: Inhibition of human U031 cell growth in a cell viability assay.

[17] = tested on: RPMI-8226; format: functional, cell-based; details: Homo sapiens
Description: SANGER: Inhibition of human RPMI-8226 cell growth in a cell viability assay.

[18] = tested on: RPMI-7951; format: functional, cell-based, Homo sapiens; details: Homo sapiens, RPMI-7951
Description: SANGER: Inhibition of human RPMI-7951 cell growth in a cell viability assay.

[19] = tested on: NCI-H1563; format: functional, cell-based, Homo sapiens; details: Homo sapiens, NCI-H1563;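 also: growth inhibition of human NCI-H1563 cells, read out with a cell viability assay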
Description: SANGER: Inhibition of human NCI-H1563 cell growth in a cell viability assay.

[20] = tested on: BB65-RCC; format: functional, cell-based, Homo sapiens; details: Homo sapiens, BB65-RCC;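 also: growth inhibition of the cell line, measured with a cell viability assay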
Description: SANGER: Inhibition of human BB65-RCC cell growth in a cell viability assay.

[21] = tested on: HT-1080; format: functional, cell-based, Homo sapiens; details: Homo sapiens, HT-1080
Description: SANGER: Inhibition of human HT-1080 cell growth in a cell viability assay.

[22] = tested on: RERF-LC-MS; format: functional, cell-based, Homo sapiens; details: Homo sapiens, RERF-LC-MS;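 also: growth inhibition of human RERF-LC-MS cells, read out by a cell viability assay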
Description: SANGER: Inhibition of human RERF-LC-MS cell growth in a cell viability assay.

[23] = tested on: DU-145; format: functional, cell-based, Homo sapiens; details: Homo sapiens, DU-145
Description: SANGER: Inhibition of human DU-145 cell growth in a cell viability assay.

[24] = tested on: NCI-H1155; format: functional, cell-based; details: Homo sapiens;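 also: cell growth inhibition measured by a viability assay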
Description: SANGER: Inhibition of human NCI-H1155 cell growth in a cell viability assay.

[25] = tested on: OVCAR-5; format: functional, cell-based, Homo sapiens; details: Homo sapiens, OVCAR-5;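 also: growth inhibition of human OVCAR-5 cells, read out with a cell viability assay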
Description: SANGER: Inhibition of human OVCAR-5 cell growth in a cell viability assay.

[26] = tested on: PC-3; format: functional, cell-based, Homo sapiens; details: Homo sapiens, PC-3;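 also: cell viability assay measuring growth inhibition of PC-3 cells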
Description: SANGER: Inhibition of human PC-3 cell growth in a cell viability assay.

[27] = tested on: RPMI-2650; format: functional, cell-based, Homo sapiens; details: Homo sapiens, RPMI-2650
Description: SANGER: Inhibition of human RPMI-2650 cell growth in a cell viability assay.

[28] = tested on: A-427; format: functional, cell-based, Homo sapiens; details: Homo sapiens, A-427;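 also: growth inhibition of human A-427 cells, read out by a cell viability assay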
Description: SANGER: Inhibition of human A427 cell growth in a cell viability assay.

[29] = tested on: MOLT-4; format: functional, cell-based; details: Homo sapiens;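 also: growth inhibition of MOLT-4 cells, determined with a cell viability readout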
Description: SANGER: Inhibition of human MOLT-4 cell growth in a cell viability assay.

[30] = tested on: HCC1395; format: functional, cell-based, Homo sapiens; details: Homo sapiens, HCC1395;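 also: growth inhibition of HCC1395 cells, read out by a cell viability assay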
Description: SANGER: Inhibition of human HCC1395 cell growth in a cell viability assay.

[31] = tested on: Mo; format: functional, cell-based; details: Homo sapiens
Description: SANGER: Inhibition of human Mo-T cell growth in a cell viability assay.

[32] = tested on: SW 962; format: functional, cell-based, Homo sapiens; details: Homo sapiens, SW 962;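 also: growth inhibition of human SW962 cells, read out by a cell viability assay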
Description: SANGER: Inhibition of human SW962 cell growth in a cell viability assay.

[33] = tested on: HCC2218; format: functional, cell-based; details: Homo sapiens;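 also: cell viability assay read-out, with IC50 given as the concentration that inhibits growth of the cell line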
Description: SANGER: Inhibition of human HCC2218 cell growth in a cell viability assay.

[34] = tested on: CHL-1; format: functional, cell-based, Homo sapiens; details: Homo sapiens, CHL-1;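 also: cell growth inhibition, read out with a cell viability assay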
Description: SANGER: Inhibition of human CHL-1 cell growth in a cell viability assay.

[35] = tested on: SCC-9; format: functional, cell-based, Homo sapiens; details: Homo sapiens, SCC-9;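 also: Read-out is a cell viability assay, with values giving inhibition of cell growth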
Description: SANGER: Inhibition of human SCC-9 cell growth in a cell viability assay.

[36] = tested on: A204; format: functional, cell-based, Homo sapiens; details: Homo sapiens, A204;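 also: growth inhibition of human A204 cells, read out with a cell viability assay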
Description: SANGER: Inhibition of human A204 cell growth in a cell viability assay.

[37] = tested on: SK-MEL-1; format: functional, cell-based; details: Homo sapiens;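 also: growth inhibition of human SK-MEL-1 cells, read out by a cell viability assay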
Description: SANGER: Inhibition of human SK-MEL-1 cell growth in a cell viability assay.

[38] = tested on: NCI-H1755; format: functional, cell-based, Homo sapiens; details: Homo sapiens, NCI-H1755;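 also: cell viability readout used to measure growth inhibition of NCI-H1755 cells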
Description: SANGER: Inhibition of human NCI-H1755 cell growth in a cell viability assay.

[39] = tested on: HDLM-2; format: functional, cell-based; details: Homo sapiens;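 also: cell viability assay measuring suppression of HDLM-2 proliferation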
Description: SANGER: Inhibition of human HDLM-2 cell growth in a cell viability assay.

[40] = tested on: HCE-T; format: functional, cell-based, Homo sapiens; details: Homo sapiens, HCE-T;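 also: cell viability assay read-out, reporting inhibition of HCE-T cell growth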
Description: SANGER: Inhibition of human HCE-T cell growth in a cell viability assay.

[41] = tested on: BEN; format: functional, cell-based, Homo sapiens; details: Homo sapiens, BEN;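 also: growth inhibition of the BEN cell line, read out with a cell viability assay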
Description: SANGER: Inhibition of human BEN cell growth in a cell viability assay.

[42] = tested on: NCI-H28; format: functional, cell-based, Homo sapiens; details: Homo sapiens, NCI-H28;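 also: growth inhibition of human NCI-H28 cells, read out as cell viability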
Description: SANGER: Inhibition of human NCI-H28 cell growth in a cell viability assay.

[43] = tested on: C8166; format: functional, cell-based; details: Homo sapiens;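 also: growth inhibition of human C8166 cells measured by a cell viability assay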
Description: SANGER: Inhibition of human C8166 cell growth in a cell viability assay.

[44] = tested on: SCC-4; format: functional, cell-based, Homo sapiens; details: Homo sapiens, SCC-4;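 also: growth inhibition of human SCC-4 cells, read out as cell viability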
Description: SANGER: Inhibition of human SCC-4 cell growth in a cell viability assay.

[45] = tested on: COR-L88; format: functional, cell-based; details: Homo sapiens;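 also: growth inhibition of COR-L88 cells, read out with a cell viability assay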
Description: SANGER: Inhibition of human COR-L88 cell growth in a cell viability assay.

[46] = tested on: G-402; format: functional, cell-based, Homo sapiens; details: Homo sapiens, G-402
Description: SANGER: Inhibition of human G-402 cell growth in a cell viability assay.

[47] = tested on: SBC-5; format: functional, cell-based, Homo sapiens; details: Homo sapiens, SBC-5;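 also: cell viability assay read-out, IC50 is the concentration that inhibits growth of the cells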
Description: SANGER: Inhibition of human SBC-5 cell growth in a cell viability assay.

[48] = tested on: U-251; format: functional, cell-based, Homo sapiens; details: Homo sapiens, U-251;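 also: growth inhibition of human U-251 cells, read out through a cell viability assay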
Description: SANGER: Inhibition of human U251 cell growth in a cell viability assay.

[49] = tested on: NCI-H720; format: functional, cell-based; details: Homo sapiens;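 also: growth inhibition of human NCI-H720 cells determined by a cell viability assay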
Description: SANGER: Inhibition of human NCI-H720 cell growth in a cell viability assay.

[50] = tested on: SNU-449; format: functional, cell-based, Homo sapiens; details: Homo sapiens, SNU-449
Description: SANGER: Inhibition of human SNU-449 cell growth in a cell viability assay.

[51] = tested on: HEL; format: functional, cell-based, Homo sapiens; details: Homo sapiens, HEL;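 also: growth inhibition of HEL cells, read out with a cell viability assay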
Description: SANGER: Inhibition of human HEL cell growth in a cell viability assay.

SMILES: O=C(c1cc(Cc2n[nH]c(=O)c3ccccc23)ccc1F)N1CCN(C(=O)C2CC2)CC1 [OLAPARIB]
- IC50 [1]: > 5 µM
- IC50 [2]: > 5 µM
- IC50 [3]: > 5 µM
- IC50 [4]: > 5 µM
- IC50 [5]: > 5 µM
- IC50 [6]: > 5 µM
- IC50 [7]: > 5 µM
- IC50 [8]: > 5 µM
- IC50 [9]: 3.52 µM
- IC50 [10]: > 5 µM
- IC50 [11]: > 5 µM
- IC50 [12]: > 5 µM
- IC50 [13]: > 5 µM
- IC50 [14]: > 5 µM
- IC50 [15]: 4.25 µM
- IC50 [16]: > 5 µM
- IC50 [17]: > 5 µM
- IC50 [18]: > 5 µM
- IC50 [19]: > 5 µM
- IC50 [20]: > 5 µM
- IC50 [21]: > 5 µM
- IC50 [22]: > 5 µM
- IC50 [23]: > 5 µM
- IC50 [24]: > 5 µM
- IC50 [25]: > 5 µM
- IC50 [26]: > 5 µM
- IC50 [27]: > 5 µM
- IC50 [28]: > 5 µM
- IC50 [29]: > 5 µM
- IC50 [30]: > 5 µM
- IC50 [31]: > 5 µM
- IC50 [32]: > 5 µM
- IC50 [33]: 3.73 µM
- IC50 [34]: > 5 µM
- IC50 [35]: > 5 µM
- IC50 [36]: > 5 µM
- IC50 [37]: > 5 µM
- IC50 [38]: > 5 µM
- IC50 [39]: > 5 µM
- IC50 [40]: > 5 µM
- IC50 [41]: > 5 µM
- IC50 [42]: > 5 µM
- IC50 [43]: > 5 µM
- IC50 [44]: > 5 µM
- IC50 [45]: > 5 µM
- IC50 [46]: > 5 µM
- IC50 [47]: > 5 µM
- IC50 [48]: > 5 µM
- IC50 [49]: 2.21 µM
- IC50 [50]: > 5 µM
- IC50 [51]: > 5 µM

SMILES: COc1ccc(C2=N[C@@H](c3ccc(Cl)cc3)[C@@H](c3ccc(Cl)cc3)N2C(=O)N2CCNC(=O)C2)c(OC(C)C)c1 [NUTLIN-3]
- IC50 [1]: > 8 µM
- IC50 [2]: > 8 µM
- IC50 [3]: > 8 µM
- IC50 [4]: > 8 µM
- IC50 [5]: > 8 µM
- IC50 [6]: 1.42 µM
- IC50 [7]: > 8 µM
- IC50 [8]: > 8 µM
- IC50 [9]: > 8 µM
- IC50 [10]: > 8 µM
- IC50 [11]: > 8 µM
- IC50 [12]: 1.79 µM
- IC50 [13]: 6.42 µM
- IC50 [14]: > 8 µM
- IC50 [15]: 0.871 µM
- IC50 [16]: > 8 µM
- IC50 [17]: > 8 µM
- IC50 [18]: > 8 µM
- IC50 [19]: > 8 µM
- IC50 [20]: > 8 µM
- IC50 [21]: 7.48 µM
- IC50 [22]: > 8 µM
- IC50 [23]: > 8 µM
- IC50 [24]: > 8 µM
- IC50 [25]: > 8 µM
- IC50 [26]: > 8 µM
- IC50 [27]: 7.94 µM
- IC50 [28]: 6.88 µM
- IC50 [29]: 2.33 µM
- IC50 [30]: > 8 µM
- IC50 [31]: > 8 µM
- IC50 [32]: > 8 µM
- IC50 [33]: 7.63 µM
- IC50 [34]: > 8 µM
- IC50 [35]: > 8 µM
- IC50 [36]: 3.06 µM
- IC50 [37]: > 8 µM
- IC50 [38]: > 8 µM
- IC50 [39]: > 8 µM
- IC50 [40]: > 8 µM
- IC50 [41]: > 8 µM
- IC50 [42]: 4.63 µM
- IC50 [43]: > 8 µM
- IC50 [44]: > 8 µM
- IC50 [45]: > 8 µM
- IC50 [46]: 3.81 µM
- IC50 [47]: > 8 µM
- IC50 [48]: > 8 µM
- IC50 [49]: > 8 µM
- IC50 [50]: > 8 µM
- IC50 [51]: > 8 µM

SMILES: O=C1N=C(NCc2cccs2)S/C1=C\c1ccc2ncccc2c1
- IC50 [1]: > 5 µM
- IC50 [2]: > 5 µM
- IC50 [3]: > 5 µM
- IC50 [4]: > 5 µM
- IC50 [5]: > 5 µM
- IC50 [6]: > 5 µM
- IC50 [7]: > 5 µM
- IC50 [8]: > 5 µM
- IC50 [9]: > 5 µM
- IC50 [10]: > 5 µM
- IC50 [11]: > 5 µM
- IC50 [12]: > 5 µM
- IC50 [13]: > 5 µM
- IC50 [14]: > 5 µM
- IC50 [15]: 1.23 µM
- IC50 [16]: > 5 µM
- IC50 [17]: > 5 µM
- IC50 [18]: > 5 µM
- IC50 [19]: > 5 µM
- IC50 [20]: > 5 µM
- IC50 [21]: > 5 µM
- IC50 [22]: > 5 µM
- IC50 [23]: > 5 µM
- IC50 [24]: > 5 µM
- IC50 [25]: > 5 µM
- IC50 [26]: > 5 µM
- IC50 [27]: > 5 µM
- IC50 [28]: > 5 µM
- IC50 [29]: > 5 µM
- IC50 [30]: > 5 µM
- IC50 [31]: > 5 µM
- IC50 [32]: > 5 µM
- IC50 [33]: > 5 µM
- IC50 [34]: > 5 µM
- IC50 [35]: > 5 µM
- IC50 [36]: > 5 µM
- IC50 [37]: > 5 µM
- IC50 [38]: > 5 µM
- IC50 [39]: > 5 µM
- IC50 [40]: > 5 µM
- IC50 [41]: > 5 µM
- IC50 [42]: > 5 µM
- IC50 [43]: > 5 µM
- IC50 [44]: > 5 µM
- IC50 [45]: 3.48 µM
- IC50 [46]: > 5 µM
- IC50 [47]: > 5 µM
- IC50 [48]: 1.64 µM
- IC50 [49]: > 5 µM
- IC50 [50]: > 5 µM
- IC50 [51]: > 5 µM

— ChEMBL document CHEMBL1201861, “Genomics of Drug Sensitity in Cancer screening data, Wellcome Trust Sanger Institute”
